In ChEMBL document CHEMBL4699657, “Fragment-to-Lead Medicinal Chemistry Publications in 2019” (J Med Chem, 2020) one finds IC50 data, which are given here for 2 molecules.

This experiment in a line: Inhibition of Influenza A/California/04/09 H1N1 PA endonuclease (1 to 204 residues) expressed in Escherichia coli BL21 (RIL) cells using (6-FAM)TGGCAATATCAGCTCCACA(MGBNFQ) DNA probe as substrate measured after 5 to 90 mins by fluorescence assay. Further details: species or system Influenza A virus (A/California/04/2009(H1N1)).

Consider `O=c1[nH]cc(Br)cc1O`, for which the 50% inhibitory concentration (IC50) (usually the point on the concentration scale where inhibition reaches its midpoint) was 16 µM.

In turn, `O=C(O)c1ccc(-c2cc(O)c(=O)[nH]c2-c2ccc(F)cc2)cc1` returned an IC50 of 0.011 µM.
